Laboratory results: ChEMBL document CHEMBL5321281, “Synthesis and Biological Evaluation of Heterocyclic Ring-Fused 20(S)-Protopanaxadiol Derivatives as Potent Antiosteoporosis Agents” (J Med Chem, 2023)
Calls of active or inactive are those of the source. No cut-off for these calls is given here.

What was measured:
[1] = Toxicity in ovariectomy induced osteoporosis C57BL/6 mouse model assessed as body weight change at 1 to 3 mg/kg, ip and measured for 6 weeks; assay type: organism-based; conditions: in vivo, 1008 h, dose 1-3 mg/kg
[2] = system: MC3T3-E1; assay: Induction of osteoblastogenesis in beta-glycerophosphate and vitamin C stimulated mouse MC3T3-E1 cells assessed as increase in ALP activity at 0.1 uM incubated for 7 days by ALP staining based microscopic analysis; assay type: functional, cell-based; conditions: time 7.0 day
[3] = system: BMMC; assay: Anti-osteoclastogenic activity in C57/BL6 mouse BMMC cells assessed as reduction in RANKL-induced TRAP mRNA expression level at 0.1 uM incubated for 1 to 5 days in presence of M-CSF by qRT-PCR analysis; assay type: functional, cell-based; conditions: time 1-5 day, TDE = time-dependent effect
[4] = Microsomal stability in mouse liver microsomes assessed as half life at 1 uM and measured upto 60 mins by LC-MS/ MS analysis; assay type: ADME, Microsome
[5] = system: BMMC; assay: Anti-osteoclastogenic activity in C57/BL6 mouse BMMC cells assessed as reduction in RANKL-induced ATPase v0d2 mRNA expression level at 0.1 uM incubated for 1 to 5 days in presence of M-CSF by qRT-PCR analysis; assay type: functional, cell-based; conditions: time 1-5 day, TDE = time-dependent effect
[6] = system: Mus musculus; assay: Protective effect in ovariectomy induced osteoporosis C57BL/6 mouse model assessed as increase in bone volume/tissue volume (BV/TV) in RIO of femur at 3 mg/kg, ip and measured after 6 weeks by micro-CT analysis; assay type: functional
[7] = AUCt in ICR mouse at 10 mg/kg, po and measured upto 24 hrs by LC-MS/MS analysis; assay type: ADME, organism-based; design: dose 10 mg/kg, time < 24 hrs, route po; conditions: in vivo
[8] = Microsomal stability in mouse liver microsomes assessed as parent compound remaining at 1 uM and measured after 60 mins by LC-MS/ MS analysis; assay type: ADME, Microsome; conditions: read-out: Stability
[9] = Clearance in ICR mouse at 1 mg/kg, iv and measured upto 24 hrs by LC-MS/MS analysis; assay type: ADME, organism-based; conditions: in vivo
[10] = system: Mus musculus; assay: Protective effect in ovariectomy induced osteoporosis C57BL/6 mouse model assessed as increase in bone volume/tissue volume (BV/TV) in RIO of femur at 1 mg/kg, ip and measured after 6 weeks by micro-CT analysis; assay type: functional
[11] = system: Mus musculus; assay: Protective effect in ovariectomy induced osteoporosis C57BL/6 mouse model assessed as inhibition of OVX-induced osteoclast activity by analysing osteoclast area in proximal femur at 3 mg/kg, ip and measured after 6 weeks by H and E staining based microscopic analysis; assay type: functional, organism-based

With `C=C(CCC=C(C)C)[C@H]1CC[C@]2(C)[C@@H]1[C@H](O)C[C@@H]1[C@@]3(C)Cc4cnc(C)nc4C(C)(C)[C@@H]3CC[C@]12C` the Activity [1] was “Non-Toxic”, the Activity [2] was “Active” and the Activity [3] was “Tde”. For the same molecule, the half-life at 1 µM [4] was 37.1 min, the Activity [5] was “Tde” and the Activity [6] was 23.2%. For the same molecule, the AUC(0-t) at 24 h [7] was 1210 ng·h/mL, the remaining at 1 h, 1 µM [8] was 31% and the clearance [9] was 14.2 mL/min/kg. For the same molecule, the Activity [10] was 5.6% and the inhibition [11] was “Active”.
